Source: the supplement of paper PMC10307832

Tests used:
Assay in all cases: relative viability (nuclei count vs DMSO), 5 days (fraction); higher = more cells survive
NCI-H1648 = test system: NCI-H1648
How it was run: (§1)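 Cells from lung cancer lines were seeded into 1536-well plates and, one day later, dosed by pin tool. Treatments were either a single drug or a fixed dose of an anchor drug with five library-drug doses (not always all listed) in √10 steps. After 5 days, nuclei were stained in a one-step fixation (final 0.05% Triton X-100, 1% formaldehyde, 1 ug/ml Hoechst) and counted on 4× images, and relative viability is the treated-to-vehicle nuclei ratio, as the median of duplicate plates.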

A549 = test system: A549
How it was run: as §1

IA-LM = test system: IA-LM
How it was run: as §1

NCI-H2342 = test system: NCI-H2342
How it was run: as §1

NCI-H1299 = test system: NCI-H1299
How it was run: as §1

NCI-H522 = test system: NCI-H522
How it was run: as §1

NCI-H1703 = test system: NCI-H1703
How it was run: as §1

SW 900 = test system: SW 900
How it was run: as §1

Calu-6 = test system: Calu-6
How it was run: as §1

EBC-1 = test system: EBC-1
How it was run: as §1

NCI-H1623 = test system: NCI-H1623
How it was run: as §1

NCI-H1563 = test system: NCI-H1563
How it was run: as §1

Work on `Cc1cnc(-c2cnc(NCCNc3ccc(C#N)cn3)nc2-c2ccc(Cl)cc2Cl)[nH]1` + O=C(c1cc(Cc2n[nH]c(=O)c3ccccc23)ccc1F)N1CCN(C(=O)C2CC2)CC1 [Olaparib] (partner 8 µM) yielded a relative viability (NCI-H1648; first compound 0.08 µM) of 0.723, a relative viability (NCI-H1648; first compound 0.253 µM) of 0.761 and a relative viability (NCI-H1648; first compound 0.8 µM) of 1.2. It also gave a relative viability (NCI-H1648; first compound 2.53 µM) of 0.865, a relative viability (A549; first compound 0.08 µM) of 0.233 and a relative viability (A549; first compound 0.253 µM) of 0.264. The relative viability (A549; first compound 0.8 µM) was 0.288, the relative viability (A549; first compound 2.53 µM) was 0.3 and the relative viability (IA-LM; first compound 0.08 µM) was 0.77. The relative viability (IA-LM; first compound 0.253 µM) was 0.766, the relative viability (IA-LM; first compound 0.8 µM) was 0.87 and the relative viability (IA-LM; first compound 2.53 µM) was 0.709. The relative viability (NCI-H2342; first compound 0.08 µM) was 0.438, the relative viability (NCI-H2342; first compound 0.253 µM) was 0.387 and the relative viability (NCI-H2342; first compound 0.8 µM) was 0.43. The relative viability (NCI-H2342; first compound 2.53 µM) was 0.439, the relative viability (NCI-H1299; first compound 0.08 µM) was 0.953 and the relative viability (NCI-H1299; first compound 0.253 µM) was 0.957. The relative viability (NCI-H1299; first compound 0.8 µM) was 0.968, the relative viability (NCI-H1299; first compound 2.53 µM) was 0.856 and the relative viability (NCI-H522; first compound 0.08 µM) was 0.641. The relative viability (NCI-H522; first compound 0.253 µM) was 0.668, the relative viability (NCI-H522; first compound 0.8 µM) was 0.681 and the relative viability (NCI-H522; first compound 2.53 µM) was 0.643. For the same molecule, the relative viability (NCI-H1703; first compound 0.08 µM) was 0.48, the relative viability (NCI-H1703; first compound 0.253 µM) was 0.378 and the relative viability (NCI-H1703; first compound 0.8 µM) was 0.448. The relative viability (NCI-H1703; first compound 2.53 µM) was 0.486, the relative viability (SW 900; first compound 0.08 µM) was 0.827 and the relative viability (SW 900; first compound 0.253 µM) was 0.913. The relative viability (SW 900; first compound 0.8 µM) was 0.848, the relative viability (SW 900; first compound 2.53 µM) was 0.561 and the relative viability (Calu-6; first compound 0.08 µM) was 0.532. For the same molecule, the relative viability (Calu-6; first compound 0.253 µM) was 0.547, the relative viability (Calu-6; first compound 2.53 µM) was 0.468 and the relative viability (EBC-1; first compound 0.08 µM) was 0.619. The relative viability (EBC-1; first compound 0.253 µM) was 0.608, the relative viability (EBC-1; first compound 0.8 µM) was 0.673 and the relative viability (EBC-1; first compound 2.53 µM) was 0.9.
Molecule `O=C(O)CCCCC(CCSCc1ccccc1)SCc1ccccc1` (configuration not stated) [CPI-613] + CCNC(=O)c1noc(-c2cc(C(C)C)c(O)cc2O)c1-c1ccc(CN2CCOCC2)cc1 [Luminespib] (partner 0.01 µM) has a relative viability (NCI-H2342; first compound 5 µM) of 0.798, a relative viability (NCI-H2342; first compound 15.81 µM) of 0.738 and a relative viability (NCI-H2342; first compound 50 µM) of 0.543. The relative viability (NCI-H2342; first compound 158.11 µM) was 0.668, the relative viability (NCI-H2342; first compound 500 µM) was 0.756 and the relative viability (NCI-H1623; first compound 5 µM) was 0.405. The relative viability (NCI-H1623; first compound 15.81 µM) was 0.436, the relative viability (NCI-H1623; first compound 50 µM) was 0.54 and the relative viability (NCI-H1623; first compound 158.11 µM) was 0.389. It also gave a relative viability (NCI-H1623; first compound 500 µM) of 0.447, a relative viability (NCI-H1563; first compound 5 µM) of 0.491 and a relative viability (NCI-H1563; first compound 15.81 µM) of 0.501. For the same molecule, the relative viability (NCI-H1563; first compound 50 µM) was 0.552, the relative viability (NCI-H1563; first compound 158.11 µM) was 0.357 and the relative viability (NCI-H1563; first compound 500 µM) was 0.316. It also gave a relative viability (NCI-H522; first compound 5 µM) of 1.15, a relative viability (NCI-H522; first compound 15.81 µM) of 1.01 and a relative viability (NCI-H522; first compound 50 µM) of 1.19. The relative viability (NCI-H522; first compound 158.11 µM) was 0.974, the relative viability (NCI-H522; first compound 500 µM) was 1.16 and the relative viability (SW 900; first compound 5 µM) was 0.162. For the same molecule, the relative viability (SW 900; first compound 15.81 µM) was 0.166, the relative viability (SW 900; first compound 50 µM) was 0.209 and the relative viability (SW 900; first compound 158.11 µM) was 0.17. For the same molecule, the relative viability (SW 900; first compound 500 µM) was 0.0842.
`O=C(O)CCCCC(CCSCc1ccccc1)SCc1ccccc1` (configuration not stated) [CPI-613] + NC(=O)Nc1cc(-c2cccc(F)c2)sc1C(=O)N[C@H]1CCCNC1 [AZD7762] (partner 0.2 µM) was tested, and the relative viability (NCI-H1648; first compound 5 µM) was 0.622, the relative viability (NCI-H1648; first compound 15.81 µM) was 0.701 and the relative viability (NCI-H1648; first compound 50 µM) was 0.645. The relative viability (NCI-H1648; first compound 158.11 µM) was 0.626, the relative viability (NCI-H1648; first compound 500 µM) was 0.665 and the relative viability (NCI-H2342; first compound 5 µM) was 0.489. The relative viability (NCI-H2342; first compound 15.81 µM) was 0.454, the relative viability (NCI-H2342; first compound 50 µM) was 0.437 and the relative viability (NCI-H2342; first compound 158.11 µM) was 0.522. The relative viability (NCI-H2342; first compound 500 µM) was 0.576, the relative viability (NCI-H522; first compound 5 µM) was 0.899 and the relative viability (NCI-H522; first compound 15.81 µM) was 0.887. For the same molecule, the relative viability (NCI-H522; first compound 50 µM) was 0.953, the relative viability (NCI-H522; first compound 158.11 µM) was 0.631 and the relative viability (NCI-H522; first compound 500 µM) was 0.563. It also gave a relative viability (NCI-H1703; first compound 5 µM) of 0.133, a relative viability (NCI-H1703; first compound 15.81 µM) of 0.12 and a relative viability (NCI-H1703; first compound 50 µM) of 0.134. The relative viability (NCI-H1703; first compound 158.11 µM) was 0.118, the relative viability (NCI-H1703; first compound 500 µM) was 0.12 and the relative viability (SW 900; first compound 5 µM) was 0.685. For the same molecule, the relative viability (SW 900; first compound 50 µM) was 0.692, the relative viability (SW 900; first compound 158.11 µM) was 0.273 and the relative viability (SW 900; first compound 500 µM) was 0.0039.
`O=C(O)CCCCC(CCSCc1ccccc1)SCc1ccccc1` (configuration not stated) [CPI-613] + Nc1ncn([C@H]2C[C@H](O)[C@@H](CO)O2)c(=O)n1 [Decitabine] (partner 2 µM) gave a relative viability (NCI-H1648; first compound 5 µM) of 0.568, a relative viability (NCI-H1648; first compound 15.81 µM) of 0.409 and a relative viability (NCI-H1648; first compound 50 µM) of 0.57. For the same molecule, the relative viability (NCI-H1648; first compound 158.11 µM) was 0.4, the relative viability (NCI-H1648; first compound 500 µM) was 0.172 and the relative viability (A549; first compound 5 µM) was 0.284. For the same molecule, the relative viability (A549; first compound 15.81 µM) was 0.195, the relative viability (A549; first compound 50 µM) was 0.269 and the relative viability (A549; first compound 158.11 µM) was 0.259. It also gave a relative viability (A549; first compound 500 µM) of 0.161, a relative viability (NCI-H2342; first compound 5 µM) of 0.669 and a relative viability (NCI-H2342; first compound 15.81 µM) of 0.656. The relative viability (NCI-H2342; first compound 50 µM) was 0.838, the relative viability (NCI-H2342; first compound 158.11 µM) was 0.78 and the relative viability (NCI-H2342; first compound 500 µM) was 0.779. For the same molecule, the relative viability (NCI-H522; first compound 5 µM) was 0.678, the relative viability (NCI-H522; first compound 15.81 µM) was 0.585 and the relative viability (NCI-H522; first compound 50 µM) was 0.697. For the same molecule, the relative viability (NCI-H522; first compound 158.11 µM) was 0.627, the relative viability (NCI-H522; first compound 500 µM) was 0.3 and the relative viability (SW 900; first compound 5 µM) was 0.458. The relative viability (SW 900; first compound 50 µM) was 0.429, the relative viability (SW 900; first compound 158.11 µM) was 0.332 and the relative viability (SW 900; first compound 500 µM) was 0.0668.
